Measurements as given in PubChem BioAssay AID1259407 (Chemical Carcinogenesis Research Information System (CCRIS), 2018).
Calls of active or inactive are those of the source. No rule for the calls is given here.

Tested on: CCRIS mutagenicity, Ames/micronucleus/aberration tests
Test: CCRIS mutagenicity studies
[1] = Test System: AMES SALMONELLA TYPHIMURIUM, Strain/Indicator: TA1537, Metabolic Activation: NONE, Method: STANDARD PLATE
[2] = Test System: E. COLI, Strain/Indicator: WP2 UVRA, Metabolic Activation: NONE, Method: STANDARD PLATE
[3] = Test System: AMES SALMONELLA TYPHIMURIUM, Strain/Indicator: TA98, Metabolic Activation: NONE, Method: STANDARD PLATE
[4] = Test System: AMES SALMONELLA TYPHIMURIUM, Strain/Indicator: TA100, Metabolic Activation: NONE, Method: STANDARD PLATE

## CC(=O)C1c2cccc(O)c2C(=O)c2c(O)cccc21
[1]
  mutagenic call: active; positive
Test System: AMES SALMONELLA TYPHIMURIUM, Strain/Indicator: TA1537, Metabolic Activation: RAT, LIVER, S-9, PHENOBARBITAL AND BETA-NAPHTHOFLAVONE, Method: STANDARD PLATE
  mutagenic call: inactive; negative
Test System: E. COLI, Strain/Indicator: WP2, Metabolic Activation: NONE, Method: STANDARD PLATE
  mutagenic call: inactive; negative
Test System: E. COLI, Strain/Indicator: WP2, Metabolic Activation: RAT, LIVER, S-9, AROCLOR 1254, Method: STANDARD PLATE
  mutagenic call: inactive; negative
[2]
  mutagenic call: inactive; negative
Test System: E. COLI, Strain/Indicator: WP2 UVRA, Metabolic Activation: RAT, LIVER, S-9, AROCLOR 1254, Method: STANDARD PLATE
  mutagenic call: inactive; negative

## C=C[Si](OCC)(OCC)OCC
Test System: AMES SALMONELLA TYPHIMURIUM, Strain/Indicator: TA98, Metabolic Activation: HAMSTER, LIVER, S-9, AROCLOR 1254 (10%), Method: PREINCUBATION
  mutagenic call: inactive; negative
Test System: AMES SALMONELLA TYPHIMURIUM, Strain/Indicator: TA98, Metabolic Activation: NONE, Method: PREINCUBATION
  mutagenic call: inactive; negative
Test System: AMES SALMONELLA TYPHIMURIUM, Strain/Indicator: TA98, Metabolic Activation: RAT, LIVER, S-9, AROCLOR 1254 (10%), Method: PREINCUBATION
  mutagenic call: inactive; negative
Test System: AMES SALMONELLA TYPHIMURIUM, Strain/Indicator: TA100, Metabolic Activation: HAMSTER, LIVER, S-9, AROCLOR 1254 (10%), Method: PREINCUBATION
  mutagenic call: inactive; negative
Test System: AMES SALMONELLA TYPHIMURIUM, Strain/Indicator: TA100, Metabolic Activation: NONE, Method: PREINCUBATION
  mutagenic call: inactive; negative
Test System: AMES SALMONELLA TYPHIMURIUM, Strain/Indicator: TA100, Metabolic Activation: RAT, LIVER, S-9, AROCLOR 1254 (10%), Method: PREINCUBATION
  mutagenic call: inactive; negative
Test System: AMES SALMONELLA TYPHIMURIUM, Strain/Indicator: TA1535, Metabolic Activation: HAMSTER, LIVER, S-9, AROCLOR 1254 (10%), Method: PREINCUBATION
  mutagenic call: inactive; negative
Test System: AMES SALMONELLA TYPHIMURIUM, Strain/Indicator: TA1535, Metabolic Activation: NONE, Method: PREINCUBATION
  mutagenic call: inactive; negative
Test System: AMES SALMONELLA TYPHIMURIUM, Strain/Indicator: TA1535, Metabolic Activation: RAT, LIVER, S-9, AROCLOR 1254 (10%), Method: PREINCUBATION
  mutagenic call: inactive; negative
Test System: AMES SALMONELLA TYPHIMURIUM, Strain/Indicator: TA1537, Metabolic Activation: HAMSTER, LIVER, S-9, AROCLOR 1254 (10%), Method: PREINCUBATION
  mutagenic call: inactive; negative
Test System: AMES SALMONELLA TYPHIMURIUM, Strain/Indicator: TA1537, Metabolic Activation: NONE, Method: PREINCUBATION
  mutagenic call: inactive; negative
Test System: AMES SALMONELLA TYPHIMURIUM, Strain/Indicator: TA1537, Metabolic Activation: RAT, LIVER, S-9, AROCLOR 1254 (10%), Method: PREINCUBATION
  mutagenic call: inactive; negative
Test System: AMES SALMONELLA TYPHIMURIUM, Strain/Indicator: TA1538, Metabolic Activation: HAMSTER, LIVER, S-9, AROCLOR 1254 (10%), Method: PREINCUBATION
  mutagenic call: inactive; negative
Test System: AMES SALMONELLA TYPHIMURIUM, Strain/Indicator: TA1538, Metabolic Activation: NONE, Method: PREINCUBATION
  mutagenic call: inactive; negative
Test System: AMES SALMONELLA TYPHIMURIUM, Strain/Indicator: TA1538, Metabolic Activation: RAT, LIVER, S-9, AROCLOR 1254 (10%), Method: PREINCUBATION
  mutagenic call: inactive; negative
Test System: Mouse lymphoma, Strain/Indicator: L5178Y (tk+/tk-), Metabolic Activation: None, Method: Suspension/plate
  mutagenic call: inactive; negative
Test System: Mouse lymphoma, Strain/Indicator: L5178Y (tk+/tk-), Metabolic Activation: Rat, Liver, S-9, Aroclor 1254, Method: Suspension/plate
  mutagenic call: inactive; negative

## COc1ccc(N/C=C/C2=[N+](C)c3ccccc3C2(C)C)c(OC)c1
Test System: Ames Salmonella typhimurium, Strain/Indicator: TA98, Metabolic Activation: None, Method: Preincubation
  mutagenic call: inactive; negative
Test System: Ames Salmonella typhimurium, Strain/Indicator: TA98, Metabolic Activation: Rat, Liver, S-9, Aroclor 1254, Method: Preincubation
  mutagenic call: inactive; negative
Test System: Ames Salmonella typhimurium, Strain/Indicator: TA100, Metabolic Activation: None, Method: Preincubation
  mutagenic call: inactive; negative
Test System: Ames Salmonella typhimurium, Strain/Indicator: TA100, Metabolic Activation: Rat, Liver, S-9, Aroclor 1254, Method: Preincubation
  mutagenic call: inactive; negative
Test System: Ames Salmonella typhimurium, Strain/Indicator: TA102, Metabolic Activation: None, Method: Preincubation
  mutagenic call: inactive; negative
Test System: Ames Salmonella typhimurium, Strain/Indicator: TA102, Metabolic Activation: Rat, Liver, S-9, Aroclor 1254, Method: Preincubation
  mutagenic call: inactive; negative
Test System: Ames Salmonella typhimurium, Strain/Indicator: TA1535, Metabolic Activation: None, Method: Preincubation
  mutagenic call: inactive; negative
Test System: Ames Salmonella typhimurium, Strain/Indicator: TA1535, Metabolic Activation: Rat, Liver, S-9, Aroclor 1254, Method: Preincubation
  mutagenic call: inactive; negative

## CC(C)=CCC/C(C)=C/CC/C(C)=C/C(=O)OCC(=O)[C@@]1(O)CC[C@H]2[C@@H]3CCC4=CC(=O)C=C[C@]4(C)[C@H]3[C@@H](O)C[C@@]21C
[3]
  mutagenic call: inactive; negative
Test System: AMES SALMONELLA TYPHIMURIUM, Strain/Indicator: TA98, Metabolic Activation: RAT, LIVER, S-9, PHENOBARBITAL AND 5,6-BENZOFLAVONE, Method: STANDARD PLATE
  mutagenic call: inactive; negative
[4]
  mutagenic call: inactive; negative
Test System: AMES SALMONELLA TYPHIMURIUM, Strain/Indicator: TA100, Metabolic Activation: RAT, LIVER, S-9, PHENOBARBITAL AND 5,6-BENZOFLAVONE, Method: STANDARD PLATE
  mutagenic call: inactive; negative
Test System: AMES SALMONELLA TYPHIMURIUM, Strain/Indicator: TA1535, Metabolic Activation: NONE, Method: STANDARD PLATE
  mutagenic call: inactive; negative
Test System: AMES SALMONELLA TYPHIMURIUM, Strain/Indicator: TA1535, Metabolic Activation: RAT, LIVER, S-9, PHENOBARBITAL AND 5,6-BENZOFLAVONE, Method: STANDARD PLATE
  mutagenic call: inactive; negative
[1]
  mutagenic call: inactive; negative
Test System: AMES SALMONELLA TYPHIMURIUM, Strain/Indicator: TA1537, Metabolic Activation: RAT, LIVER, S-9, PHENOBARBITAL AND 5,6-BENZOFLAVONE, Method: STANDARD PLATE
  mutagenic call: inactive; negative
[2]
  mutagenic call: inactive; negative
Test System: E. COLI, Strain/Indicator: WP2 UVRA, Metabolic Activation: RAT, LIVER, S-9, PHENOBARBITAL AND 5,6-BENZOFLAVONE, Method: STANDARD PLATE
  mutagenic call: inactive; negative

## COc1cccc(C=O)c1O
[3]
  mutagenic call: inactive; negative
[4]
  mutagenic call: inactive; negative
Test System: E. COLI, Strain/Indicator: CM561 LEXA, Metabolic Activation: NONE, Method: STANDARD PLATE
  mutagenic call: inactive; negative
Test System: E. COLI, Strain/Indicator: CM611 UVRA/LEXA, Metabolic Activation: NONE, Method: STANDARD PLATE
  mutagenic call: inactive; negative
[2]
  mutagenic call: inactive; negative

## c1cc2ccc3ccc4ccc5ccc6ccc1c1c2c3c4c5c61
Test System: AMES SALMONELLA TYPHIMURIUM, Strain/Indicator: TA97, Metabolic Activation: NONE, Method: STANDARD PLATE
  mutagenic call: inactive; negative
Test System: AMES SALMONELLA TYPHIMURIUM, Strain/Indicator: TA97, Metabolic Activation: RAT, LIVER, S-9, PCB, Method: STANDARD PLATE
  mutagenic call: active; positive
[3]
  mutagenic call: inactive; negative
Test System: AMES SALMONELLA TYPHIMURIUM, Strain/Indicator: TA98, Metabolic Activation: RAT, LIVER, S-9, AROCLOR 1254, Method: FLUCTUATION
  mutagenic call: active; positive
Test System: AMES SALMONELLA TYPHIMURIUM, Strain/Indicator: TA98, Metabolic Activation: RAT, LIVER, S-9, AROCLOR 1254, Method: STANDARD PLATE
  mutagenic call: active; positive
Test System: AMES SALMONELLA TYPHIMURIUM, Strain/Indicator: TA98, Metabolic Activation: RAT, LIVER, S-9, PCB, Method: STANDARD PLATE
  mutagenic call: active; positive
[4]
  mutagenic call: inactive; negative
Test System: AMES SALMONELLA TYPHIMURIUM, Strain/Indicator: TA100, Metabolic Activation: RAT, LIVER, S-9, PCB, Method: STANDARD PLATE
  mutagenic call: inactive; negative
Test System: AMES SALMONELLA TYPHIMURIUM, Strain/Indicator: TA1537, Metabolic Activation: RAT, LIVER, S-9, AROCLOR 1254, Method: STANDARD PLATE
  mutagenic call: active; positive
Test System: AMES SALMONELLA TYPHIMURIUM, Strain/Indicator: TA1538, Metabolic Activation: RAT, LIVER, S-9, AROCLOR 1254, Method: STANDARD PLATE
  mutagenic call: active; positive
